Source: US12390437B2, “Itaconic acid derivatives and uses thereof intreating an inflammatory disease or a disease associated with an undesirable immune response” (Sitryx Therapeutics Limited, priority 2019, dated 2025)

system: hepatocytes; assay: Hepatocyte stability assay (human); format: in vitro ADME; details: 10 μM compound, 0.5×10^6 cells/mL, 60 minutes
Summary of the method: (§1)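 Cryopreserved hepatocytes (viability >70%), 0.5×10^6 cells/mL in Leibovitz buffer, incubated at 37 °C with 10 μM compound (0.1% DMSO), duplicates; buffer-only incubations as negative control. Samples at 0-60 min quenched in acetonitrile, parent measured by LC-MS/MS; half-life and Clint (μL min^−1 10^−6 cells) from ln % remaining versus time slope.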

CIint (μL min^−1 10^−6 cells) | Compound
4 μL min^−1 10^−6 cells | C=C(CC(=O)OC1CCCCC1)C(=O)OCC(=O)O [Example 91, 2-((4-(cyclohexyloxy)-2-methylene-4-oxobutanoyl)oxy)acetic acid]
11 μL min^−1 10^−6 cells | C=C(CC(=O)OC1CC2(CCC2)C1)C(=O)OCC(=O)O [Example 96, 2-((2-methylene-4-oxo-4-(spiro[3.3]heptan-2-yloxy)butanoyl)oxy)acetic acid]

system: not listed separately; assay: Hepatocyte stability assay (human); format: in vitro ADME; details: cryopreserved hepatocytes, 10 μM compound, 0.5×10^6 cells/mL, 60 minutes, read-out: T½
Summary of the method: as §1

half-life at 10 μM | Compound
5.87 h | C=C(CC(=O)OC1CCCCC1)C(=O)OCC(=O)O [Example 91, 2-((4-(cyclohexyloxy)-2-methylene-4-oxobutanoyl)oxy)acetic acid]
2.1 h | C=C(CC(=O)OC1CC2(CCC2)C1)C(=O)OCC(=O)O [Example 96, 2-((2-methylene-4-oxo-4-(spiro[3.3]heptan-2-yloxy)butanoyl)oxy)acetic acid]

system: IL-6 cytokine output from THP-1s; assay: THP-1 AlphaLISA IL-6 cytokine assay; format: cell-based, human; details: Homo sapiens; PMA-differentiated THP-1 cells, LPS 24 hr then Nigericin 1 hour
Summary of the method: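 Cells are differentiated with PMA over 72 h, switched to 1% FBS medium and treated with compound for 30 min before LPS stimulation for 24 h. Nigericin is added for a final hour, and secreted cytokine is measured by AlphaLISA, with IC50 fitted from percent inhibition.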

IC50 | Compound
33.8 µM | C=C(CC(=O)OC1CCCCC1)C(=O)OCC(=O)O [Example 91, 2-((4-(cyclohexyloxy)-2-methylene-4-oxobutanoyl)oxy)acetic acid]
47.1 µM | C=C(CC(=O)OC1CC2(CCC2)C1)C(=O)OCC(=O)O [Example 96, 2-((2-methylene-4-oxo-4-(spiro[3.3]heptan-2-yloxy)butanoyl)oxy)acetic acid]

system: not listed separately; assay: Mouse pharmacokinetic study, oral administration; format: in vivo; details: male, C57BL/6, mouse, plasma, po, 100 mg/kg, plasma, male C57BL/6 mice, oral gavage 100 mg/kg, 0.083 h; read-out: Parent compound concentrations following oral administration, Time 0.083 h
Summary of the method: (§2)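 Young adult male C57BL/6 mice get a single 10 mg/kg IV or 100 mg/kg oral dose. Semi-serial plasma sampling, three mice per point, and LC-MS/MS quantitation follow.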

concentration at 0.083 h | Compound
15300 ng/mL | C=C(CC(=O)OC1CC2(CCC2)C1)C(=O)OCC(=O)O [Example 96, 2-((2-methylene-4-oxo-4-(spiro[3.3]heptan-2-yloxy)butanoyl)oxy)acetic acid]

same assay, conditions: male, C57BL/6, mouse, plasma, po, 100 mg/kg, plasma, male C57BL/6 mice, oral gavage 100 mg/kg, 0.25 h; read-out: Parent compound concentrations following oral administration, Time 0.25 h

concentration at 0.25 h | Compound
8860 ng/mL | C=C(CC(=O)OC1CCCCC1)C(=O)OCC(=O)O [Example 91, 2-((4-(cyclohexyloxy)-2-methylene-4-oxobutanoyl)oxy)acetic acid]
4770 ng/mL | C=C(CC(=O)OC1CC2(CCC2)C1)C(=O)OCC(=O)O [Example 96, 2-((2-methylene-4-oxo-4-(spiro[3.3]heptan-2-yloxy)butanoyl)oxy)acetic acid]

same assay, conditions: male, C57BL/6, mouse, plasma, po, 100 mg/kg, plasma, male C57BL/6 mice, oral gavage 100 mg/kg, 0.5 h; read-out: Parent compound concentrations following oral administration, Time 0.5 h

concentration at 0.5 h | Compound
6240 ng/mL | C=C(CC(=O)OC1CCCCC1)C(=O)OCC(=O)O [Example 91, 2-((4-(cyclohexyloxy)-2-methylene-4-oxobutanoyl)oxy)acetic acid]
3780 ng/mL | C=C(CC(=O)OC1CC2(CCC2)C1)C(=O)OCC(=O)O [Example 96, 2-((2-methylene-4-oxo-4-(spiro[3.3]heptan-2-yloxy)butanoyl)oxy)acetic acid]

same assay, conditions: male, C57BL/6, mouse, plasma, po, 100 mg/kg, plasma, male C57BL/6 mice, oral gavage 100 mg/kg, 1 h; read-out: Parent compound concentrations following oral administration, Time 1 h

concentration at 1 h | Compound
1920 ng/mL | C=C(CC(=O)OC1CCCCC1)C(=O)OCC(=O)O [Example 91, 2-((4-(cyclohexyloxy)-2-methylene-4-oxobutanoyl)oxy)acetic acid]
1550 ng/mL | C=C(CC(=O)OC1CC2(CCC2)C1)C(=O)OCC(=O)O [Example 96, 2-((2-methylene-4-oxo-4-(spiro[3.3]heptan-2-yloxy)butanoyl)oxy)acetic acid]

same assay, conditions: male, C57BL/6, mouse, plasma, po, 100 mg/kg, plasma, male C57BL/6 mice, oral gavage 100 mg/kg, 2 h; read-out: Parent compound concentrations following oral administration, Time 2 h

concentration at 2 h | Compound
450 ng/mL | C=C(CC(=O)OC1CCCCC1)C(=O)OCC(=O)O [Example 91, 2-((4-(cyclohexyloxy)-2-methylene-4-oxobutanoyl)oxy)acetic acid]
810 ng/mL | C=C(CC(=O)OC1CC2(CCC2)C1)C(=O)OCC(=O)O [Example 96, 2-((2-methylene-4-oxo-4-(spiro[3.3]heptan-2-yloxy)butanoyl)oxy)acetic acid]

same assay, conditions: male, C57BL/6, mouse, plasma, po, 100 mg/kg, plasma, male C57BL/6 mice, oral gavage 100 mg/kg, 4 h; read-out: Parent compound concentrations following oral administration, Time 4 h

concentration at 4 h | Compound
33 ng/mL | C=C(CC(=O)OC1CCCCC1)C(=O)OCC(=O)O [Example 91, 2-((4-(cyclohexyloxy)-2-methylene-4-oxobutanoyl)oxy)acetic acid]
856 ng/mL | C=C(CC(=O)OC1CC2(CCC2)C1)C(=O)OCC(=O)O [Example 96, 2-((2-methylene-4-oxo-4-(spiro[3.3]heptan-2-yloxy)butanoyl)oxy)acetic acid]

same assay, conditions: male, C57BL/6, mouse, plasma, po, 100 mg/kg, plasma, male C57BL/6 mice, oral gavage 100 mg/kg, 6 h; read-out: Parent compound concentrations following oral administration, Time 6 h

concentration at 6 h | Compound
330 ng/mL | C=C(CC(=O)OC1CC2(CCC2)C1)C(=O)OCC(=O)O [Example 96, 2-((2-methylene-4-oxo-4-(spiro[3.3]heptan-2-yloxy)butanoyl)oxy)acetic acid]

same assay, conditions: male, C57BL/6, mouse, plasma, po, 100 mg/kg, plasma, male C57BL/6 mice, oral gavage 100 mg/kg, 8 h; read-out: Parent compound concentrations following oral administration, Time 8 h

concentration at 8 h | Compound
19 ng/mL | C=C(CC(=O)OC1CCCCC1)C(=O)OCC(=O)O [Example 91, 2-((4-(cyclohexyloxy)-2-methylene-4-oxobutanoyl)oxy)acetic acid]
443 ng/mL | C=C(CC(=O)OC1CC2(CCC2)C1)C(=O)OCC(=O)O [Example 96, 2-((2-methylene-4-oxo-4-(spiro[3.3]heptan-2-yloxy)butanoyl)oxy)acetic acid]

same assay, conditions: male, C57BL/6, mouse, plasma, po, 100 mg/kg, plasma, male C57BL/6 mice, oral gavage 100 mg/kg, 24 h; read-out: Parent compound concentrations following oral administration, Time 24 h

concentration at 24 h | Compound
13 ng/mL | C=C(CC(=O)OC1CCCCC1)C(=O)OCC(=O)O [Example 91, 2-((4-(cyclohexyloxy)-2-methylene-4-oxobutanoyl)oxy)acetic acid]
< 0.8 ng/mL | C=C(CC(=O)OC1CC2(CCC2)C1)C(=O)OCC(=O)O [Example 96, 2-((2-methylene-4-oxo-4-(spiro[3.3]heptan-2-yloxy)butanoyl)oxy)acetic acid]

system: not listed separately; assay: Mouse pharmacokinetic study, intravenous dosing; format: in vivo; details: male, C57BL/6, mouse, iv; plasma, 10 mg/kg i.v., time 0.05 h; read-out: Parent compound concentration following intravenous administration
Summary of the method: as §2

concentration at 0.05 h | Compound
15100 ng/mL | C=C(CC(=O)OC1CC2(CCC2)C1)C(=O)OCC(=O)O [Example 96, 2-((2-methylene-4-oxo-4-(spiro[3.3]heptan-2-yloxy)butanoyl)oxy)acetic acid]

same assay, conditions: male, C57BL/6, mouse, iv; plasma, 10 mg/kg i.v., time 0.133 h; read-out: Parent compound concentration following intravenous administration

concentration at 0.133 h | Compound
3590 ng/mL | C=C(CC(=O)OC1CC2(CCC2)C1)C(=O)OCC(=O)O [Example 96, 2-((2-methylene-4-oxo-4-(spiro[3.3]heptan-2-yloxy)butanoyl)oxy)acetic acid]

same assay, conditions: male, C57BL/6, mouse, iv; plasma, 10 mg/kg i.v., time 0.25 h; read-out: Parent compound concentration following intravenous administration

concentration at 0.25 h | Compound
659 ng/mL | C=C(CC(=O)OC1CC2(CCC2)C1)C(=O)OCC(=O)O [Example 96, 2-((2-methylene-4-oxo-4-(spiro[3.3]heptan-2-yloxy)butanoyl)oxy)acetic acid]

same assay, conditions: male, C57BL/6, mouse, iv; plasma, 10 mg/kg i.v., time 0.5 h; read-out: Parent compound concentration following intravenous administration

concentration at 0.5 h | Compound
169 ng/mL | C=C(CC(=O)OC1CC2(CCC2)C1)C(=O)OCC(=O)O [Example 96, 2-((2-methylene-4-oxo-4-(spiro[3.3]heptan-2-yloxy)butanoyl)oxy)acetic acid]

same assay, conditions: male, C57BL/6, mouse, iv; plasma, 10 mg/kg i.v., time 1 h; read-out: Parent compound concentration following intravenous administration

concentration at 1 h | Compound
6.4 ng/mL | C=C(CC(=O)OC1CC2(CCC2)C1)C(=O)OCC(=O)O [Example 96, 2-((2-methylene-4-oxo-4-(spiro[3.3]heptan-2-yloxy)butanoyl)oxy)acetic acid]

same assay, conditions: male, C57BL/6, mouse, iv; plasma, 10 mg/kg i.v., time 2 h; read-out: Parent compound concentration following intravenous administration

concentration at 2 h | Compound
3 ng/mL | C=C(CC(=O)OC1CC2(CCC2)C1)C(=O)OCC(=O)O [Example 96, 2-((2-methylene-4-oxo-4-(spiro[3.3]heptan-2-yloxy)butanoyl)oxy)acetic acid]

same assay, conditions: male, C57BL/6, mouse, iv; plasma, 10 mg/kg i.v., time 4 h; read-out: Parent compound concentration following intravenous administration

concentration at 4 h | Compound
< 0.8 ng/mL | C=C(CC(=O)OC1CC2(CCC2)C1)C(=O)OCC(=O)O [Example 96, 2-((2-methylene-4-oxo-4-(spiro[3.3]heptan-2-yloxy)butanoyl)oxy)acetic acid]

same assay, conditions: male, C57BL/6, mouse, iv; plasma, 10 mg/kg i.v., time 6 h; read-out: Parent compound concentration following intravenous administration

concentration at 6 h | Compound
< 0.8 ng/mL | C=C(CC(=O)OC1CC2(CCC2)C1)C(=O)OCC(=O)O [Example 96, 2-((2-methylene-4-oxo-4-(spiro[3.3]heptan-2-yloxy)butanoyl)oxy)acetic acid]

same assay, conditions: male, C57BL/6, mouse, iv; plasma, 10 mg/kg i.v., time 8 h; read-out: Parent compound concentration following intravenous administration

concentration at 8 h | Compound
< 0.8 ng/mL | C=C(CC(=O)OC1CC2(CCC2)C1)C(=O)OCC(=O)O [Example 96, 2-((2-methylene-4-oxo-4-(spiro[3.3]heptan-2-yloxy)butanoyl)oxy)acetic acid]
